In one assay the target is T1, mGLP-1 Receptor (Mus musculus, UniProt O35659).
T1 construct: expressed in transfected cells; host or cells: baby hamster kidney (BHK) cells, stably transfected, with CRE-firefly luciferase reporter
T1 sequence (O35659 22-463): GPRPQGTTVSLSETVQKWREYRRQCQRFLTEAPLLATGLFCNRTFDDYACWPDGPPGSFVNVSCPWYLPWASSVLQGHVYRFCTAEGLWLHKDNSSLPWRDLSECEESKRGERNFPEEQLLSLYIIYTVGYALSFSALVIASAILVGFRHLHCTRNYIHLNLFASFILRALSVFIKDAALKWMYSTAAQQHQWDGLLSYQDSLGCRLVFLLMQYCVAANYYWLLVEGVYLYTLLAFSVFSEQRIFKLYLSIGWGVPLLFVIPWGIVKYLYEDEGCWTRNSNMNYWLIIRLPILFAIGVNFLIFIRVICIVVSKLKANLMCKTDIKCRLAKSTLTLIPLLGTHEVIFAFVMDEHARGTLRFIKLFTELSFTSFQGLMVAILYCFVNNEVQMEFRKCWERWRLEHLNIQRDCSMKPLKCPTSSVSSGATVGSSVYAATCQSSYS
In words: Receptor activation: cAMP production by CRE-luciferase reporter in stably transfected BHK cells. Format: cell-based. To be noted: relative to native ligand at mouse-derived receptor. For orientation: Changes in cAMP serve as a functional read-out for many G protein-coupled receptors.

The target of a further assay is T2, hGcg Receptor (Homo sapiens, UniProt P47871).
T2 construct: expressed in transfected cells; host or cells: baby hamster kidney (BHK) cells, stably transfected, with CRE-firefly luciferase reporter
T2 sequence (P47871 26-477): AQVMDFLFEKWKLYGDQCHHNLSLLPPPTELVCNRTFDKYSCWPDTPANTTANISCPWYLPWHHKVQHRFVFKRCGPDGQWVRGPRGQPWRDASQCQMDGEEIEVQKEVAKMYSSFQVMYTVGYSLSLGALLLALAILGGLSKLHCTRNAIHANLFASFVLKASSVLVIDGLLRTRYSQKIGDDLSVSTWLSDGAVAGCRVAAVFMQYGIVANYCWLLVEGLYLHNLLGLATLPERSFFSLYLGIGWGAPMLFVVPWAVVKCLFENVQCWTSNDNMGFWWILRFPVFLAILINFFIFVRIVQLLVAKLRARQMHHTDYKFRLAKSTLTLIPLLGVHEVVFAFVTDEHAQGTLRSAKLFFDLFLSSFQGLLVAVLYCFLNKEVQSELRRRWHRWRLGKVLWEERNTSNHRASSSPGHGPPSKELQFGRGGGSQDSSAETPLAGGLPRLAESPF
The assay is described as above. Format: cell-based. To be noted: compared to the native ligand for the receptor. An outline of the steps:
(§1)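 BHK cells stably expressing one human receptor plus a CRE-firefly luciferase reporter were stimulated 3 h at 37 °C in phenol-red-free DMEM with 1% ovalbumin and 0.1% Pluronic F-68.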

In another assay the target is T3, hGLP-1 Receptor (Homo sapiens, UniProt P43220).
T3 construct: expressed in transfected cells; host or cells: baby hamster kidney (BHK) cells, stably transfected, with CRE-firefly luciferase reporter
T3 sequence (P43220 24-463): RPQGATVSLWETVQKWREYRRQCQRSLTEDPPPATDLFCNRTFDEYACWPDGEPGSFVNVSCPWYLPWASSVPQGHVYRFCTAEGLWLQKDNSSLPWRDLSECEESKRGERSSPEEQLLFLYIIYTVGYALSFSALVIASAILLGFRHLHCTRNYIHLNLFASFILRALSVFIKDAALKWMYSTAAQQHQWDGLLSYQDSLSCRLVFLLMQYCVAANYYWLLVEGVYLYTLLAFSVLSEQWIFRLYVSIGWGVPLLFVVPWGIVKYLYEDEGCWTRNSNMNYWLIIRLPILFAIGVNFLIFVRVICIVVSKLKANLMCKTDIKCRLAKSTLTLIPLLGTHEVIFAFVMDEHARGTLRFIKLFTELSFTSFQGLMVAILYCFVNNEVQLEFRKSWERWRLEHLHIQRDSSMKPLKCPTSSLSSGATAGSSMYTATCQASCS
The description is as above. Type of assay: cell-based. To be noted: compared to the native ligand for the receptor. The essentials:
as §1

In another assay the target is T4, hGIP Receptor (Homo sapiens, UniProt P48546).
T4 construct: expressed in transfected cells; host or cells: baby hamster kidney (BHK) cells, stably transfected, with CRE-firefly luciferase reporter
T4 sequence (P48546 22-466): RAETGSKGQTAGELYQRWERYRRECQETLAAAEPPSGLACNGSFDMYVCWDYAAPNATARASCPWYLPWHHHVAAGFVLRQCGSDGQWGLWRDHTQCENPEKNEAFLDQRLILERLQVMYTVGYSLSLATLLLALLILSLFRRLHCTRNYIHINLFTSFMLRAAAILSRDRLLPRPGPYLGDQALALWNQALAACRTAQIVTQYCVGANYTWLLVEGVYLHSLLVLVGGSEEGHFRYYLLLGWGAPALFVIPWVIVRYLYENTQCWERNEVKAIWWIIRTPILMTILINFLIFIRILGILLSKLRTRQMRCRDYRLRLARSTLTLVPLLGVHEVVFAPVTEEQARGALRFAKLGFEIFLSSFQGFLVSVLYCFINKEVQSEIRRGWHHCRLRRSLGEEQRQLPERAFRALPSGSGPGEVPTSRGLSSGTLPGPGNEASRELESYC
Described as above. To be noted: compared to the native ligand for the receptor. Format: cell-based. The essentials:
as §1

Another assay relates to DIO mice. In words: Energy expenditure in DIO mice (indirect calorimetry). Format: in vivo, mouse. To be noted: daily injections of 3 nmol/kg for 5 days inside an indirect calorimeter. As to the method:
Energy expenditure was assessed using a combined indirect calorimetry system (TSE Systems, Chesterfield, MO). Animals were kept in the indirect calorimetry system for 7d; d1 (0–24h) included acclimation to the new cages but no energy expenditure readings, d2 included baseline energy expenditure readings with vehicle injections, d3-7 included experimental energy expenditure readings and treatment injections. Treatment injections begin at t = 48h as indicated by the vertical dashed line and were performed every 24h as indicated by the arrows. O2 consumption and CO2 production were measured every 20 min to determine the respiratory quotient and energy expenditure using the Weir equation (EE=(3.94 x vO2) + (1.1 x vCO2)).

The target in another assay is T5, mGIP Receptor (Mus musculus, UniProt Q0P543).
T5 construct: expressed in transfected cells; host or cells: baby hamster kidney (BHK) cells, stably transfected, with CRE-firefly luciferase reporter
T5 sequence (Q0P543 19-460): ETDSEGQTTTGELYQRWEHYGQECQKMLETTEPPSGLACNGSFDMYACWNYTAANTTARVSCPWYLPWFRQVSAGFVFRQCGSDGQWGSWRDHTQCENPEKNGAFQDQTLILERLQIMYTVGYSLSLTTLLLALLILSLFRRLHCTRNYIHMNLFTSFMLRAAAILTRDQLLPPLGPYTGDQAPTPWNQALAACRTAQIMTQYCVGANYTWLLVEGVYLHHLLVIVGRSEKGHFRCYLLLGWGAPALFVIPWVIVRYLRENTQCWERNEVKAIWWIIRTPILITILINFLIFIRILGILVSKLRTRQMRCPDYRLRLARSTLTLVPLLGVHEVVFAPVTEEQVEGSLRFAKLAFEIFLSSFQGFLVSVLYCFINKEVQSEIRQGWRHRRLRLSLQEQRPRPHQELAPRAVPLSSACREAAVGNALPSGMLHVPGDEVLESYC
In words: Receptor activation: cAMP production by CRE-luciferase reporter in stably transfected BHK cells. Type of assay: cell-based. To be noted: relative to native ligand at mouse-derived receptor.

*1 amine or outer side, *2 acyl side, *3 side chain or, on linkers, in order; H or OH if unused. Where a SMILES comes first, the peptide text is derived from it. Side-chain parts run from the residue outwards. [ ]: non-standard residue; d: D form. The star is where a group is joined. C20 diacid = O=C(O)CCCCCCCCCCCCCCCCCCC(=O)*; γGlu = O=C(O)[C@H](CCC(=O)[*:2])N[*:1]; εLys = N[C@@H](CCCCN[*:1])C(=O)[*:2]; Aib = CC(C)(N)C(=O)O

Description for mGIP Receptor: (§2) Cyclic AMP (cAMP) production was assessed as a proxy for receptor activation using stably transfected baby hamster kidney (BHK) cell lines expressing the DNA for one individual receptor (GLP-1R, GIPR, GcgR; human- or mouse-specific sequence) and the DNA for the firefly luciferase reporter gene linked to the cAMP response element (CRE). The cells were kept in continuous culture at 37 °C and 5% CO2 in Dulbecco's Modified Eagle Medium (DMEM) supplemented with 10% heat-inactivated fetal bovine serum (HI-FBS), 300 μg/mL hygromycin, and 500 μg/mL G418; for cell lines expressing GIPR, the G418 concentration was lowered to 400 μg/mL. Cells were plated in a 96-well poly-D-lysine-coated plate at 5,000 cells per well in growth media and incubated overnight at 37 °C with 5% CO2. After the overnight incubation, the media was removed, the plate was washed once in Dulbecco's phosphase-buffered saline (DPBS), and 50 μL of assay buffer (DMEM without phenol red, 10 mM HEPES, 1x Glutamax, 1% ovalbumin, 0.1% Pluronic F-68) was added to each well. […] The assay plate was covered to protect reagent from light, shaken at 250 rpm at room temperature for 30 min, and read in a microtiter plate reader. EC50 values were calculated using Prism software (GraphPad) with the nonlinear regression log(agonist) vs. response. A minimum of two replicates were measured for each sample.
Description for mGLP-1 Receptor: as §2

As for `CC[C@H](C)[C@H](NC(=O)[C@H](CO)NC(=O)[C@H](Cc1ccc(O)cc1)NC(=O)[C@H](CC(=O)O)NC(=O)[C@H](CO)NC(=O)[C@@H](NC(=O)[C@H](Cc1ccccc1)NC(=O)[C@@H](NC(=O)CNC(=O)[C@H](Cc1c[nH]cn1)NC(=O)C(C)(C)NC(=O)[C@@H](N)Cc1c[nH]cn1)[C@@H](C)O)[C@@H](C)O)C(=O)N[C@@H](Cc1ccc(O)cc1)C(=O)N[C@@H](CC(C)C)C(=O)N[C@@H](CCC(=O)O)C(=O)N[C@@H](CCCCNC(=O)[C@@H](N)CCCCNC(=O)[C@@H](N)CCCCNC(=O)CC[C@H](NC(=O)CCCCCCCCCCCCCCCCCCC(=O)O)C(=O)O)C(=O)N[C@@H](CCCCN)C(=O)N[C@@H](Cc1ccc(O)cc1)C(=O)N[C@@H](C)C(=O)NC(C)(C)C(=O)N[C@@H](CCC(=O)O)C(=O)N[C@@H](Cc1ccccc1)C(=O)N[C@H](C(=O)N[C@@H](CCC(N)=O)C(=O)N[C@@H](Cc1c[nH]c2ccccc12)C(=O)N[C@@H](CC(C)C)C(=O)N[C@@H](CC(C)C)C(=O)N[C@@H](CCC(=O)O)C(=O)NCC(=O)NCC(=O)N1CCC[C@H]1C(=O)N[C@@H](CO)C(=O)N[C@@H](CO)C(=O)NCC(=O)N[C@@H](C)C(=O)N1CCC[C@H]1C(=O)N1CCC[C@H]1C(=O)N1CCC[C@H]1C(=O)N[C@@H](CO)C(N)=O)C(C)C` [Compound 16] (H-H[Aib]HGTFTSDYSIYLEK([εLys-εLys-γGlu-C20 diacid])KYA[Aib]EFVQWLLEGGPSSGAPPPS-NH2), the “mGLP-1 Receptor Relative Potency %” value at mGLP-1 Receptor was found to be 142%. Also, the “hGcg Receptor Relative Potency %” value at hGcg Receptor amounted to 102%. Moreover, the “hGLP-1 Receptor Relative Potency %” value at hGLP-1 Receptor stood at 177%. Also, the “hGIP Receptor Relative Potency %” value at hGIP Receptor was 67%. In addition, in the assay with DIO mice, the energy expenditure entry is “increased energy expenditure over both vehicle and tirzepatide”; the locomotor activity result is “not accompanied by a change in locomotor activity”. Moreover, the “mGIP Receptor Relative Potency %” value at mGIP Receptor came to 265%.

(Values after article PMC9305623, “Next generation GLP-1/GIP/glucagon triple agonists normalize body weight in obese mice” (Molecular Metabolism, 2022).)
